Measurements from the NIST ThermoML archive (doi:10.1021/je9005823).

What was measured:
[1] = refractive index (Na D-line) (dimensionless); settings: 298.15 K; 101.33 kPa; Liquid
[2] = 298.15 K, 101 kPa, Liquid; for viscosity: Capillary tube (Ostwald / Ubbelohde) method
[3] = xn = mol fraction of the nth substance listed; settings: 298.15 K, 101 kPa, Liquid; for viscosity: Capillary tube (Ostwald / Ubbelohde) method
[4] = refractive index (Na D-line) (dimensionless); xn = mol fraction of the nth substance listed; settings: 298.15 K, 101 kPa, Liquid

CCCCCC(C)O (configuration not stated) [2-heptanol]
Settings | mass density [kg/m3] | refractive index | viscosity [mPa·s]
[1] | – | 1.4188 | –
[2] | 813.33 | – | 5.33

CCCCCC(C)O (configuration not stated) [2-heptanol] + CC(=O)c1ccccc1
Settings | mass density, [3] [kg/m3] | refractive index, [4] | viscosity, [3] [mPa·s]
x2 = 0 | 813.33 | 1.4188 | 5.33
x2 = 0.0913 | 829.12 | 1.4489 | 4.282
x2 = 0.1631 | 841.87 | 1.4748 | 3.572
x2 = 0.2637 | 860.39 | 1.5079 | 2.763
x2 = 0.3425 | 875.43 | 1.5298 | 2.296
x2 = 0.4374 | 894.2 | 1.5535 | 1.908
x2 = 0.5387 | 915.07 | – | 1.662
x2 = 0.6446 | 937.92 | – | 1.55
x2 = 0.7571 | 963.35 | – | 1.548
x2 = 0.8733 | 991.14 | – | 1.606
x2 = 0.9542 | 1011.38 | 1.5486 | 1.651

CCCCC(C)O (configuration not stated) [2-hexanol]
Settings | mass density [kg/m3] | refractive index | viscosity [mPa·s]
[1] | – | 1.4116 | –
[2] | 810.14 | – | 4.1

CCCCC(C)O (configuration not stated) [2-hexanol] + CC(=O)c1ccccc1
Settings | mass density, [3] [kg/m3] | refractive index, [4] | viscosity, [3] [mPa·s]
x2 = 0 | 810.14 | 1.4116 | 4.1
x2 = 0.0902 | 827.84 | 1.4485 | 3.193
x2 = 0.1678 | 843.27 | 1.4782 | 2.658
x2 = 0.2536 | 860.63 | 1.5037 | 2.16
x2 = 0.34 | 878.39 | 1.5247 | 1.802
x2 = 0.4382 | 898.86 | 1.5425 | 1.506
x2 = 0.5395 | 920.38 | – | 1.344
x2 = 0.6451 | 943.23 | – | 1.273
x2 = 0.75 | 966.34 | – | 1.313
x2 = 0.8628 | 991.72 | 1.5505 | 1.399
x2 = 0.9511 | 1011.93 | 1.5394 | 1.556

CC(=O)c1ccccc1 [acetophenone]
Settings | mass density [kg/m3] | refractive index | viscosity [mPa·s]
[1] | – | 1.5308 | –
[2] | 1023.3 | – | 1.678

CC(=O)c1ccccc1 [acetophenone] + CC(C)O
Settings | mass density, [3] [kg/m3] | refractive index, [4] | viscosity, [3] [mPa·s]
x1 = 0.0892 | 813.69 | 1.3971 | 1.678
x1 = 0.1658 | 839.2 | 1.4181 | 1.503
x1 = 0.2517 | 865.44 | 1.4393 | 1.399
x1 = 0.3432 | 890.91 | 1.4601 | 1.354
x1 = 0.4297 | 913.04 | 1.4775 | 1.352
x1 = 0.5345 | 937.56 | 1.4953 | 1.367
x1 = 0.6466 | 961.31 | 1.5099 | 1.421
x1 = 0.7561 | 982.35 | 1.5195 | 1.484
x1 = 0.8635 | 1001.26 | 1.5255 | 1.556
x1 = 0.9568 | 1016.5 | 1.5276 | 1.626
x1 = 1 | 1023.3 | 1.5308 | 1.678

CC(=O)c1ccccc1 [acetophenone] + CCC(C)O
Settings | mass density, [3] [kg/m3] | refractive index, [4] | viscosity, [3] [mPa·s]
x1 = 0.1031 | 830.43 | 1.4255 | 2.345
x1 = 0.1635 | 846.12 | 1.4443 | 2.009
x1 = 0.2517 | 868.13 | 1.4669 | 1.705
x1 = 0.3422 | 889.8 | 1.4877 | 1.544
x1 = 0.4361 | 911.31 | 1.5044 | 1.461
x1 = 0.533 | 932.56 | 1.5189 | 1.46
x1 = 0.6461 | 956.27 | 1.5314 | 1.506
x1 = 0.7517 | 977.34 | 1.5367 | 1.562
x1 = 0.8675 | 999.34 | 1.5351 | 1.617
x1 = 0.9462 | 1013.72 | 1.5336 | 1.65
x1 = 1 | 1023.3 | 1.5308 | 1.678

CC(=O)c1ccccc1 [acetophenone] + CCCC(C)O
Settings | mass density, [3] [kg/m3] | refractive index, [4] | viscosity, [3] [mPa·s]
x1 = 0.0917 | 826.19 | 1.4627 | 2.767
x1 = 0.1629 | 842.36 | 1.4972 | 2.314
x1 = 0.2502 | 862.04 | 1.5257 | 1.875
x1 = 0.3416 | 882.41 | 1.5487 | 1.626
x1 = 0.4371 | 903.49 | – | 1.502
x1 = 0.5387 | 925.71 | – | 1.489
x1 = 0.6442 | 948.51 | – | 1.534
x1 = 0.7547 | 972.08 | – | 1.605
x1 = 0.8716 | 996.7 | 1.547 | 1.658
x1 = 0.949 | 1012.77 | 1.539 | 1.669
x1 = 1 | 1023.3 | 1.5308 | 1.678

CC(=O)c1ccccc1 [acetophenone] + CCCCC(C)O
x1 = 1
Settings | mass density [kg/m3] | refractive index | viscosity [mPa·s]
[3] | 1023.3 | – | 1.678
[4] | – | 1.5308 | –

CC(=O)c1ccccc1 [acetophenone] + CCCCCC(C)O
x1 = 1
Settings | mass density [kg/m3] | refractive index | viscosity [mPa·s]
[3] | 1023.3 | – | 1.678
[4] | – | 1.5308 | –

CCC(C)O (configuration not stated) [butan-2-ol]
Settings | mass density [kg/m3] | refractive index | viscosity [mPa·s]
[1] | – | 1.3946 | –
[2] | 802.56 | – | 3.132

CCC(C)O (configuration not stated) [butan-2-ol] + CC(=O)c1ccccc1
x2 = 0
Settings | mass density [kg/m3] | refractive index | viscosity [mPa·s]
[3] | 802.56 | – | 3.132
[4] | – | 1.3946 | –

CCCC(C)O (configuration not stated) [pentan-2-ol]
Settings | mass density [kg/m3] | refractive index | viscosity [mPa·s]
[1] | – | 1.4045 | –
[2] | 805.24 | – | 3.478

CCCC(C)O (configuration not stated) [pentan-2-ol] + CC(=O)c1ccccc1
x2 = 0
Settings | mass density [kg/m3] | refractive index | viscosity [mPa·s]
[3] | 805.24 | – | 3.478
[4] | – | 1.4045 | –

CC(C)O [propan-2-ol]
Settings | mass density [kg/m3] | refractive index | viscosity [mPa·s]
[1] | – | 1.3745 | –
[2] | 780.98 | – | 2.044

CC(C)O [propan-2-ol] + CC(=O)c1ccccc1
x2 = 0
Settings | mass density [kg/m3] | refractive index | viscosity [mPa·s]
[3] | 780.98 | – | 2.044
[4] | – | 1.3745 | –
